Each structure is given as a SMILES string. Counter-ions that a name gives are not always drawn.

recombinant human CCR5 receptor, sequence (P51681 whole entry): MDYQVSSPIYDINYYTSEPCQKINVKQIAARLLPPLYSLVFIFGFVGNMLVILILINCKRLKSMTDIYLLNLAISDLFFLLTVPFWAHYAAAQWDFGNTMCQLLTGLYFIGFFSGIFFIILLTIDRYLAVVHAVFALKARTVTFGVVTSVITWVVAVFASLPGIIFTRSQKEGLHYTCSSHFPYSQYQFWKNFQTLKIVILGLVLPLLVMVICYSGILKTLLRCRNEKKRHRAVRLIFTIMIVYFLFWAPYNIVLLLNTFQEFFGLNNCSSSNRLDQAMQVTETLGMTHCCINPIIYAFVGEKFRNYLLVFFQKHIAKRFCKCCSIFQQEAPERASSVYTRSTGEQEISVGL

One assay deals with recombinant human CCR5 receptor (Homo sapiens, UniProt P51681). The assay can be described thus: MIP-1α radioligand binding assay (scintillation proximity), CHO cell membranes. Conditions: Pic50, negative log (base 10) of IC50 (M); displacement of 0.1 nM iodinated MIP-1α; CHO membranes with recombinant human CCR5; average if tested more than once. As to the method:
The ability of compounds to inhibit the binding of MIP-1 α was assessed by an in vitro radioligand binding assay. Membranes were prepared from Chinese hamster ovary cells which expressed the recombinant human CCR5 receptor. These membranes were incubated with 0.1 nM iodinated MIP-1α, scintillation proximity beads and various concentrations of the compounds of the invention in 96-well plates. The amount of iodinated MIP-1α bound to the receptor was determined by scintillation counting.
In Table II the results are presented as Pic50 values. […] (that is 1×10^−6 M) gives a Pic50 of 6.
Background: SPA uses beads or plates that emit light when radiolabelled molecules are held near them.
Take `CCN(C(=O)Cc1ccc(S(C)(=O)=O)cc1)C1CCN(CC[C@H](c2ccc(S(C)(=O)=O)cc2)c2ccc(F)c(F)c2)CC1` [Compound No. 54, (R)-N-[1-{3-(3,4-fluorophenyl)-3-(4-methanesulfonylphenyl)propyl}-4-piperidinyl]-N-ethyl-4-methanesulfonylphenylacetamide hydrochloride]: the IC50 is 2.14e-08 M.
`CCN(C(=O)Cc1ccc(S(C)(=O)=O)cc1)C1CCN(CC[C@@H](c2ccccc2)c2ccc(S(C)(=O)=O)cc2)CC1` [Compound No. 50, (S)-N-[1-{3-phenyl-3-(4-methanesulfonylphenyl)propyl}-4-piperidinyl]-N-ethyl-4 methanesulfonylphenylacetamide]: the IC50 was 8.13e-10 M.
Same read-out and setting: as for `CCN(C(=O)Cc1ccc(S(C)(=O)=O)cc1)C1CCN(CC[C@H](c2ccc(S(C)(=O)=O)cc2)c2cccc(F)c2)CC1` [compound 51], the figure is 3.72e-10 M.

Staying with this assay, now noted: negative log (base 10) of IC50 (M); displacement of 0.1 nM iodinated MIP-1α; CHO membranes with recombinant human CCR5; average if tested more than once.
For `CCN(C(=O)Cc1ccc(S(C)(=O)=O)cc1)C1CCN(CCC(c2ccc(NC(=O)OC(C)(C)C)cc2)c2cccc(F)c2)CC1` (stereo not shown) [Compound No. 43, N-[1-(3-[3-fluorophenyl]-3-[4-Boc-aminophenyl]propyl)-piperidin-4-yl]-N-ethyl-4-methanesulfonylphenylacetamide], the Pic50 came to 7.05.

The assay is the same for the next values; noted with them: negative log (base 10) of IC50 (M); displacement of 0.1 nM iodinated MIP-1α; CHO membranes with recombinant human CCR5; average if tested more than once; read-out: Pic50 (converted).
For the compound `CCN(C(=O)Cc1ccc(S(C)(=O)=O)cc1)C1CCN(CCC(c2ccc(NC(=O)c3ccc(S(C)(=O)=O)cc3)cc2)c2cccc(F)c2)CC1` (stereo not shown) [compound 47], the IC50 is 3.47e-08 M.
Take `CCN(C(=O)Cc1ccc(S(C)(=O)=O)cc1)C1CCN(CCC(c2ccccc2)c2ccc(NC(=O)NC(C)C)cc2)CC1` (stereo not shown) [compound 42]: the IC50 is 1.32e-08 M.
On the same count and under the same terms, as for `CCN(C(=O)Cc1ccc(S(C)(=O)=O)cc1)C1CCN(CCC(c2ccccc2)c2ccc(NS(=O)(=O)c3ccccc3)cc2)CC1` (stereo not shown) [compound 28], the figure is 8.51e-07 M.
In the case of `CCN(C(=O)Cc1ccc(S(C)(=O)=O)cc1)C1CCN(CCC(c2ccccc2)c2ccc(SC)cc2)CC1` (stereo not shown) [Compound No. 41, N-[1-(3-phenyl-3-[4-methanethiophenyl]propyl)-piperidin-4-yl]-N-ethyl-4-methanesulfonylphenylacetamide], the IC50 was 1.17e-08 M.
As to `CCN(C(=O)Cc1ccc(S(C)(=O)=O)cc1)C1CCN(CCC(c2ccc(N)cc2)c2cccc(F)c2)CC1` (stereo not shown) [Compound No. 44, N-[1-(3-[3-fluorophenyl]-3-[4-aminophenyl]propyl)-piperidin-4-yl]-N-ethyl-4-methanesulfonylphenylacetamide hydrochloride], the IC50 is 1.05e-07 M.
As for `CCN(C(=O)Cc1ccc(S(C)(=O)=O)cc1)C1CCN(CCC(c2ccc(NC(C)=O)cc2)c2cccc(F)c2)CC1` (stereo not shown) [compound 45], the IC50 is 3.63e-09 M.
Turning to `CCN(C(=O)Cc1ccc(S(C)(=O)=O)cc1)C1CCN(CCC(c2ccc(NS(C)(=O)=O)cc2)c2cccc(F)c2)CC1` (stereo not shown) [Compound No. 49], the IC50 was 6.17e-09 M.
As to `CCN(C(=O)Cc1ccc(S(C)(=O)=O)cc1)C1CCN(CCC(c2ccc(NS(C)(=O)=O)cc2)c2cccc(F)c2)CC1` (stereo not shown) [compound 46], the IC50 was 9.12e-09 M.
Turning to `CCN(C(=O)Cc1ccc(S(C)(=O)=O)cc1)C1CCN(CCC(c2ccccc2)c2ccc([S+](C)[O-])cc2)CC1` (stereo not shown) [compound 75], the IC50 was 1.38e-08 M.
